# Experimental data taken from the SangsterLogP compilation.
row,Structure (SMILES),logP
1,O=C1c2ccc(O)c(O)c2C(=O)c2c(O)ccc(O)c21,2.01
2,O=[N+]([O-])c1ccc(/N=N/c2ccc(Nc3ccccc3)cc2)cc1,5.07
3,O=[N+]([O-])c1ccc(/N=N/c2ccc(N(CCO)CCO)cc2)c([N+](=O)[O-])c1,1.79
4,CN(C)c1ccc(/N=N/c2ccccc2)cc1,4.05
5,CC(=O)Nc1ccc(/N=N/c2cc(C)ccc2O)cc1,2.85
6,CNc1ccc(NC)c2c1C(=O)c1ccccc1C2=O,2.7
7,CN(CCO)c1ccc(/N=N/c2c(Cl)cc([N+](=O)[O-])cc2Cl)cc1,4.34
8,O=[N+]([O-])c1ccc(Nc2ccc(O)cc2)c([N+](=O)[O-])c1,3.88
9,CNc1cccc2c1C(=O)c1ccccc1C2=O,2.87
10,O=[N+]([O-])c1ccc(/N=N/c2ccc(N(CCO)CCO)cc2Cl)cc1,2.93
11,CCN(CCO)c1ccc(/N=N/c2ccc([N+](=O)[O-])cc2Cl)cc1,4.08
12,O=C1C(c2[nH]c3c(Br)cc(Br)cc3c2O)=Nc2c(Br)cc(Br)cc21,6.66
13,Nc1ccc(Nc2ccc([N+](=O)[O-])cc2[N+](=O)[O-])cc1,3.32
14,Cc1cc(N(CCO)CCO)ccc1/N=N/c1ccc([N+](=O)[O-])cc1[N+](=O)[O-],2.44
15,O=[N+]([O-])c1ccc(/N=N/c2ccccc2)cc1,3.59
16,OCCN(CCO)c1ccc(/N=N/c2ccccc2)cc1,2.31
17,O=c1[nH]c2ccccc2c(O)c1/N=N/c1ccccc1,4.2
18,Cc1cc(N(CCO)CCO)ccc1/N=N/c1ccc([N+](=O)[O-])cc1Cl,3.41
19,COc1cc([N+](=O)[O-])ccc1/N=N/c1ccc(N(CCO)CCO)cc1,2.27
20,CCN(CCO)c1ccc(/N=N/c2ccc([N+](=O)[O-])cc2)cc1,3.37
21,O=[N+]([O-])c1ccc(Nc2ccccc2)c([N+](=O)[O-])c1,4.55
22,Nc1ccc(/N=N/c2ccc([N+](=O)[O-])cc2)cc1,2.37
23,O=C1c2ccccc2C(=O)c2c1ccc(O)c2O,2.34
24,COc1cc(N)c2c(c1N)C(=O)c1ccccc1C2=O,1.29
25,O=C1c2ccccc2C(=O)c2c(NCCO)cccc21,2.11

row,Structure (SMILES),logP
1,Cc1cc(N(CCO)CCO)ccc1/N=N/c1c(Cl)cc([N+](=O)[O-])cc1[N+](=O)[O-],3.15
2,Nc1ccc(N=Nc2ccccc2)cc1,2.62
3,O=C1C(c2[nH]c3ccccc3c2O)=Nc2ccccc21,2.63
4,Nc1c(Oc2ccccc2)cc(O)c2c1C(=O)c1ccccc1C2=O,4.68
5,Oc1ccc(/N=N/c2ccccc2)cc1,3.18
6,O=C1c2ccccc2C(=O)C1c1nc2ccccc2cc1O,2.49
7,Cc1ccc2c(c1N)C(=O)c1ccccc1C2=O,2.8
8,Cc1cc(Cl)cc2c1C(=O)/C(=C1\Sc3cc(Cl)cc(C)c3C1=O)S2,6.02
9,O=C1c2ccccc2C(=O)c2c(O)ccc(O)c21,2.34
10,CNc1ccc(O)c2c1C(=O)c1c(O)ccc(NC)c1C2=O,1.61
11,O=C1c2ccccc2C(=O)c2c(NCCO)ccc(NCCO)c21,1.17
12,Cc1cc(N(CCO)CCO)ccc1/N=N/c1ccc([N+](=O)[O-])cc1,2.7
13,c1ccc2oc(-c3ccc(-c4nc5ccccc5o4)s3)nc2c1,5.97
14,CCOc1cc(/N=N/c2c(Br)cc([N+](=O)[O-])cc2[N+](=O)[O-])c(NC(C)=O)cc1N(CCOC(C)=O)CCOC(C)=O,3.56
15,Clc1ccc(/N=N/c2ccccc2)cc1,4.56
16,Cc1cc(N(CCO)CCO)ccc1/N=N/c1c(Cl)cc([N+](=O)[O-])cc1Cl,4.12
17,CNc1ccc(NCCO)c2c1C(=O)c1ccccc1C2=O,1.94
18,O=C1c2ccccc2C(=O)c2c(O)c(O)cc(O)c21,1.84
19,CN(C)c1ccc(/N=N/c2ccc([N+](=O)[O-])cc2)cc1,3.79
20,Cc1cc(N(CCO)CCO)ccc1/N=N/c1ccccc1,2.7
21,Nc1ccc(O)c2c1C(=O)c1ccccc1C2=O,1.8
22,Cc1cc(N(CCO)CCC#N)ccc1/N=N/c1ccc([N+](=O)[O-])cc1,2.97
23,CCN(CCO)c1ccc(/N=N/c2ccc([N+](=O)[O-])cc2[N+](=O)[O-])cc1,3.11
24,O=[N+]([O-])c1ccc(/N=N/c2ccc(N(CCO)CCO)cc2)cc1,2.05
25,CCN(CC)c1ccc(/N=N/c2ccc([N+](=O)[O-])cc2)cc1,4.69
